Measurements reported in PMC10056443, “Derivatives of Amaryllidaceae Alkaloid Ambelline as Selective Inhibitors of Hepatic Stage of Plasmodium berghei Infection In Vitro” (Pharmaceutics, 2023).
Like-named read-outs stand apart in the source and are kept apart here.

Columns and labels:
[1] = system: hepatic stage of P. berghei; assay: In vitro activity against P. berghei hepatic stages (luciferase-expressing sporozoites in Huh-7 cells, bioluminescence); assay type: cell-based, Plasmodium berghei; conditions: for IC50 / activity at 1 µM / activity at 10 µM: Plasmodium berghei; for activity against P. berghei hepatic stages: screening at 10 and 1 µM / IC50 determination; for activity at 1 µM / activity at 10 µM: DMSO = 100, read-out: INFECTION Ø screening
Method in brief: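 Huh-7 hepatoma cells pretreated with compounds 1 h, then infected with luciferase-expressing P. berghei sporozoites (1 × 10^4/well, 1:1 ratio) and incubated at 37 °C.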

[2] = Cytotoxicity assessment in vitro (MTT assay); assay type: cell-based; conditions: human
Method in brief: (§1)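 Human HepG2 hepatocellular carcinoma cells (passage 20–25) were treated with compound at 10 μM in triplicate for 24 h at 37 °C, 5% CO2. Viability was then measured by MTT: 3 h incubation, formazan dissolved in DMSO, absorbance read at 570 nm.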

HepG2 cells = assay: Cytotoxicity assessment in vitro (MTT assay); assay type: cell-based
Method in brief: as §1

[3] = system: resistant Dd2 P. falciparum strain; conditions: cited from earlier work
Huh-7 cell line = assay: Huh-7 cell confluency by alamarBlue assay during hepatic-stage test; assay type: cell-based; conditions: human, 46 h, pH 7
Method in brief: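 Huh-7 human hepatoma cells pre-treated with compound in infection medium 1 h before luciferase-expressing P. berghei sporozoites were added (1:1, 1 × 10^4 per well), then incubated 46 h at 37 °C, 5% CO2. Confluency assessed indirectly by alamarBlue; IC50 from nonlinear-regression fit of normalized dose-response curves.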

[4] = system: P. falciparum NF54 ring-stage synchronized cultures; assay: In vitro activity against P. falciparum blood stages (flow cytometry, SYBR green I); assay type: cell-based, Plasmodium falciparum; conditions: Control = 7.76333, 48 h
Experimental: Activity against the blood stage of P. falciparum infection was assessed by flow cytometry analysis following the incubation of either test compounds or the drug vehicle (DMSO) with ring-stage synchronized parasite cultures, as previously described. Stock solutions of the test compounds, as well as of the positive control compound chloroquine, were prepared in DMSO and diluted to test concentrations in complete malaria culture medium (CMCM), i.e., 1640 RPMI medium supplemented with 25 mM HEPES, 2.4 mM L-glutamine, 50 µg/mL gentamicin, 0.5% w/v Albumax, 11 mM glucose, 1.47 mM hypoxanthine, and 37.3 mM NaHCO3. Samples at tested concentration were then incubated with ring-stage synchronized cultures of P. falciparum NF54 at 2.5% hematocrit and at approximately 1% parasitemia in 96-well plates at 37 °C in a 5% CO2 and 5% O2 atmosphere. Forty-eight hours post incubation, parasite load was assessed by flow cytometry, upon staining with the DNA-specific dye SYBR green I. Approximately 100,000 events were analyzed in each flow cytometry measurement.

COc1c2c(cc3c1OCO3)[C@]13C=C[C@H](OC)C[C@H]1N(C2)C[C@@H]3O [compound 28, ambelline]
IC50 ([1]; Huh-7, 48 h, read-out: IC50 P. berghei): > 10 µM
activity against P. berghei hepatic stages [1]: neither haemanthamine nor ambelline showed inhibition
viability at 24 h, 10 µM ([2]; c = 10 µM, 24 h, MTT, read-out: HepG2 % of cell viability compared to non-treated control (100%)): 50 ± 1%
Ø screening, HepG2 (sheet Graphs) (HepG2 cells; c = 10 μM, DMSO = 100, in %): 49.86
1. screening of cytotoxic potential, HepG2 cell line (HepG2 cells; c = 10 μM, replicate 1, in %): 49.93
2. screening of cytotoxic potential, HepG2 cell line (HepG2 cells; c = 10 μM, replicate 2, in %): 48.36
3. screening of cytotoxic potential, HepG2 cell line (HepG2 cells; c = 10 μM, replicate 3, in %): 51.3
IC50 [3]: 7300 ± 300 nM

COc1c2c(cc3c1OCO3)[C@]13C=C[C@H](OC)C[C@H]1N(C2)C[C@H]3OC(=O)c1ccc([N+](=O)[O-])cc1Cl [28s, 11-O-(2-Chloro-4-nitrobenzoyl)ambelline]
activity at 1 µM ([1]; Huh-7, 48 h): 48.2%
activity at 10 µM ([1]; Huh-7, 48 h): 1.4%
activity against P. berghei hepatic stages [1]: not dose-dependent
CELL CONFLUENCY Ø screening (Huh-7 cell line; 1 µM): 95.79
CELL CONFLUENCY Ø screening (Huh-7 cell line; 10 µM): 77.1
Ø screening, blood stage parasite load ([4]; at 10 nM): 7.46
Ø screening, blood stage parasite load ([4]; at 500 nM): 7.523
Ø screening, blood stage parasite load ([4]; at 100 nm): 7.653
viability at 24 h, 10 µM [2]: 54 ± 6%
1. screening of cytotoxic potential, HepG2 cell line (HepG2 cells; human, 24 h, 10 µM): 55.56
2. screening of cytotoxic potential, HepG2 cell line (HepG2 cells; human, 24 h, 10 µM): 46.62
3. screening of cytotoxic potential, HepG2 cell line (HepG2 cells; human, 24 h, 10 µM): 58.6
Ø screening, HepG2 (sheet Graphs) (HepG2 cells; human, 24 h, 10 µM): 53.59

COc1c2c(cc3c1OCO3)[C@]13C=C[C@H](OC)C[C@H]1N(C2)C[C@H]3OC(=O)c1ccc(Cl)c([N+](=O)[O-])c1 [28t, 11-O-(4-Chloro-3-nitrobenzoyl)ambelline]
activity at 1 µM ([1]; Huh-7, 48 h): 114%
activity at 10 µM ([1]; Huh-7, 48 h): 92.6%
activity against P. berghei hepatic stages [1]: not dose-dependent
CELL CONFLUENCY Ø screening (Huh-7 cell line; 1 µM): 96.94
CELL CONFLUENCY Ø screening (Huh-7 cell line; 10 µM): 92.83
Ø screening, blood stage parasite load ([4]; at 10 nM): 7.33
Ø screening, blood stage parasite load ([4]; at 500 nM): 7.613
Ø screening, blood stage parasite load ([4]; at 100 nm): 7.113
viability at 24 h, 10 µM [2]: 15 ± 2%
1. screening of cytotoxic potential, HepG2 cell line (HepG2 cells; human, 24 h, 10 µM): 13.64
2. screening of cytotoxic potential, HepG2 cell line (HepG2 cells; human, 24 h, 10 µM): 17.76
3. screening of cytotoxic potential, HepG2 cell line (HepG2 cells; human, 24 h, 10 µM): 14.19
Ø screening, HepG2 (sheet Graphs) (HepG2 cells; human, 24 h, 10 µM): 15.2

COc1c2c(cc3c1OCO3)[C@]13C=C[C@H](OC)C[C@H]1N(C2)C[C@H]3OC(=O)c1ccc(C)c([N+](=O)[O-])c1 [28r, 11-O-(4-Methyl-3-nitrobenzoyl)ambelline]
activity at 1 µM ([1]; Huh-7, 48 h): 22.2%
activity at 10 µM ([1]; Huh-7, 48 h): 1.01%
IC50 ([1]; Huh-7, mean, unit (Table 1: µM), read-out: Antiplasmodial activity - Ø IC50): 0.41 µM
IC50 ([1]; Huh-7, replicate 1, unit (Table 1: µM), read-out: Antiplasmodial activity - IC50 determination, 1. measurement): 0.358 µM
IC50 ([1]; Huh-7, replicate 2, unit (Table 1: µM), read-out: Antiplasmodial activity - IC50 determination, 2. measurement): 0.408 µM
IC50 ([1]; Huh-7, replicate 3, unit (Table 1: µM), read-out: Antiplasmodial activity - IC50 determination, 3. measurement): 0.465 µM
IC50 ([1]; hepatic stage, Huh-7 cells, parasite load 48 h post-infection, read-out: IC50 P. berghei): 0.41 ± 0.054 µM
CELL CONFLUENCY Ø screening (Huh-7 cell line; 1 µM): 94.75
CELL CONFLUENCY Ø screening (Huh-7 cell line; 10 µM): 52.08
Ø screening, blood stage parasite load ([4]; at 10 nM): 8.177
Ø screening, blood stage parasite load ([4]; at 500 nM): 7.467
Ø screening, blood stage parasite load ([4]; at 100 nm): 7.743
viability at 24 h, 10 µM [2]: 65 ± 8%
1. screening of cytotoxic potential, HepG2 cell line (HepG2 cells; human, 24 h, 10 µM): 69.43
2. screening of cytotoxic potential, HepG2 cell line (HepG2 cells; human, 24 h, 10 µM): 55.1
3. screening of cytotoxic potential, HepG2 cell line (HepG2 cells; human, 24 h, 10 µM): 69.8
Ø screening, HepG2 (sheet Graphs) (HepG2 cells; human, 24 h, 10 µM): 64.78

CC(=O)O[C@@H]1CC=C2CCN3Cc4cc5c(cc4[C@H]1[C@@H]23)OCO5 [compound 5, acetylcaranine]
IC50 [3]: 3500 ± 300 nM
